Experimental data taken from patent publication US9163018B2, “Method of treatment of age-related macular degeneration (AMD)” (Prana Biotechnology Limited, priority 2006, dated 2015).

Columns and labels:
[1] = biological target: T1, Aβ 1-42 (Homo sapiens, UniProt P05067); experiment: Fluorometric H2O2 assay (inhibition of Abeta H2O2 production); type: biochemical; conditions: concentration required to inhibit 50% of Abeta H2O2 production; read-out: H2O2 IC50
T1 construct: The reaction solutions contained Aβ 1-42 at concentrations
T1 sequence (P05067 672-713 limits assumed): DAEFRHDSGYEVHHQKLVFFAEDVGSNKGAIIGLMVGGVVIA
In short: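 Reactions in PBS pH 7.4 at 37 C for 60 min, containing Aβ, copper and test compound. H2O2 output read as fluorescence of HRP-coupled deacetylated DCF. Fluorescence converted to H2O2 concentration via H2O2 standards.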

[2] = system: primary cortical neuronal cultured cells; experiment: Test compound cytotoxicity, MTS assay, primary cortical neuronal cultures; type: cell-based, mouse
In short: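 Primary cortical neurons were cultured five days in Neurobasal/B27, then exposed on day six to compounds (from 2.5 mM DMSO stocks) in medium minus antioxidants, in triplicate for 4 days at 37° C. Viability was measured by MTS, 2 h at 37° C, absorbance at 560 nm.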

[3] = system: Abeta in extract of post-mortem human AD brain tissue; experiment: BAS: human brain amyloid solubilization assay; type: biochemical; conditions: max effect across the concentration range, referenced to baseline PBS
In short: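 Plaque-bearing post-mortem AD cortex homogenised in ice-cold PBS pH 7.4; soluble Aβ in 100,000×g supernatant, insoluble Aβ from resuspended pellet. Fractions run on Tris-Tricine SDS-PAGE, immunoblotted with W02, densitometry against synthetic Aβ40 standards.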

[4] = biological target: T2, Abeta:Zn (25:50 μM) Synthetic Aggregations (Homo sapiens, UniProt P05067); experiment: Disaggregation of Abeta:Zn synthetic aggregates (ThT fluorescence); type: biochemical; conditions: for Disaggregation % Aggregate reduction at 5 μM: 5 μM test compound; for EC50: Abeta:Zn 25:50 μM aggregates
T2 construct: PB Compound Mediated Dissolution of Aggregated Abeta 1-42; purchased Keck Laboratory, Yale University School of Medicine
T2 sequence (P05067 672-713 limits assumed): as above
In short: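 ThT signal (excitation 450 nm, emission 480 nm) measured after compounds at final 1, 5, 10, 25 and 50 μM acted 2 h at 37 degrees on preformed aggregates. Those aggregates came from 24 h rotating incubation of 25 μM Abeta1-42, 50 μM ZnCl2 and 50 μM ThT in PBS pH 6.6.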

[5] = E Log D, chromatographic method; type: physicochemical; conditions: pH 7.4
Description: Effective Log D values were measured using a chromatographic method employing a SUPELCOSIL LC-ABZ column using an octanol saturated mobile phase at pH 7.4.

[6] = Mice plasma concentration after oral dose; type: in vivo; conditions: 30 min to 4 h after single or repeat oral dose of 30 mg/kg
[7] = system: Aβ deposits; conditions: daily oral gavage 30 mg/kg, 9 weeks, 13-14 months old transgenic mice
[8] = system: M17 human neuroblastoma cells; experiment: Cytotoxicity, M17 human neuroblastoma cells; type: cell-based; conditions: for Cytotox (% viable) M17 cells at 1 μM: 1 μM test compound; for Cytotox (% viable) M17 cells at 10 μM: 10 μM test compound
Description: Assay 3. MTS Assay for Cell Viability
Cell viability is determined using the MTS assay. Culture medium is replaced with fresh neurobasal medium plus B27 supplements minus antioxidants. 1/10th volume MTS solution (Cell Titre 96 Aqueous One, Promega Corporation) and incubated at 37° C., 2 hrs. 200 microliter aliquots are measured with a spectrophotometer at 560 nm.

[9] = mouse, in vivo, 10 days
[10] = system: dityrosine oligomerization; experiment: CuTy: inhibition of dityrosine oligomerization; type: biochemical; conditions: referenced to in-house standard (set as 100% inhibition)
[11] = system: metal ions in retinal drusen; experiment: Post mortem retina screening, ZP1 zinc labeling of Bruch membrane; conditions: 15 hours incubation; TPEN 100 μM, PB-1033 100 and 250 μM; 10 μM ZP1
Description: Post Mortem Screening The BAS assay is adopted for post mortem retina. Using a trephine, 6 mm diameter regions of peripheral retina from frozen donor eyes are dissected. Following defrosting, the neuronal retina and the RPE cells are removed by gentle agitation in PBS buffer. Following removal of the RPE cells, strips of the Bruch membrane are cut from the eye. 4 samples are prepared: 1) Control […] Samples are then washed 3 times and the labeling visualized using a fluorescence and confocal microscope. A repeat of this procedure is performed with the exception that samples are incubated for a period of 15 hours before washing to determine differential metal binding over this longer period. The test results are in the form of fluorescence imaging from a confocal microscope of the 4 samples tested in this Example after 15 hours of sample incubation. […] Fluorescence microscopic photographs (which are in colour) are available upon request from the […].

Row | Structure (SMILES) | IC50 [1] | Cytotox (% viable) Neuronal cells at 1 μM ([2]; 1 μM test compound) | Cytotox (% viable) Neuronal cells at 10 μM ([2]; 10 μM test compound) | BAS max effect [3] | Disaggregation % Aggregate reduction at 5 μM [4] | EC50 [4] | ElogD (E) [5] | Mice plasma concentration [6] | Tg Mice % difference from control in Amyloid plaque abundance [7] | Tg Mice % difference from control in insoluble brain amyloid burden [7] | Tg Mice % difference from control in soluble brain amyloid burden [7] | Cytotox (% viable) M17 cells at 1 μM [8] | Cytotox (% viable) M17 cells at 10 μM [8] | Toxicity at 30 mg/kg [9] | CuTy % inhibition of dityrosine oligomerization [10] | ZP1 (zinc sensor) labeling of post mortem Bruch membrane [11]
1 | O=C(NCCc1c[nH]cn1)c1ccc2c(Cl)cc(Cl)c(O)c2n1 [PB 1038] | 260 nM | 91% | 84% | 627% | 51.3% | 4850 nM | 2.92 | Up to 2694 ng/ mL ng/mL | Decrease | Decrease | Increase |  |  |  |  | 
2 | CCn1cnc2c(O)c(I)cc(Cl)c2c1=O [PB 1138] | 300 nM |  |  |  | 53% | 4700 nM |  | Up to 1802 ng/ mL ng/mL |  |  |  | 99.7% | 68.2% | 10 days, 2/4 deaths |  | 
3 | CC(C)c1cnc2c(O)c(I)ccn2c1=O [PB 1142] | 370 nM |  |  |  | 42% | 7100 nM |  |  |  |  |  | 96.7% | 44.2% | 10 days, 1/4 death |  | 
4 | CCCCc1cnc2c(O)c(I)ccn2c1=O [PB 1145] | 660 nM |  |  |  | 28% | 7200 nM |  |  |  |  |  | 101.7% | 58.7% | 10 days, 2/4 death |  | 
5 | CCCCc1cnc2c(O)cccn2c1=S [PB 1148] | 410 nM |  |  |  | 70% | 1550 nM |  | Up to 57 ng/ml ng/mL |  |  |  |  |  | 7 days, 2/4 deaths |  | 
6 | CC(C)n1cnc2c(O)c(I)ccc2c1=O [PB 1153] | 320 nM |  |  |  | 53% | 4700 nM |  | Up to 277 ng/ml ng/mL |  |  |  |  |  | 10 days, 1/4 deaths |  | 
7 | O=c1c2ccc(I)c(O)c2ncn1-c1ccc(F)cc1F [PB 1157] | 380 nM |  |  |  | 45% | 8100 nM |  |  |  |  |  | 90.3% | 80.3% | 6 days, 2/4 deaths |  | 
8 | O=C(NCc1ccc(F)cc1)c1cnc2c(O)c(I)ccn2c1=O [PB 1158] | 990 nM |  |  |  | 10% | > 20000 nM |  |  |  |  |  | 104.7% | 56% | 7 days, 4/4 deaths |  | 
9 | CCn1cnc2c(O)c(I)ccc2c1=S [PB 1168] | 400 nM |  |  |  | 70% | 1110 nM |  | Up to 400 ng/ ml ng/mL |  |  |  | 85.7% | 43% | 10 days, none, 1/4 mild signs |  | 
10 | Nc1cc(Cn2cnc3c(O)c(Cl)cc(Cl)c3c2=O)ccn1 [PB 1250] | 480 nM |  |  |  |  |  |  |  |  |  |  | 114.8% | 100.7% | 10 days, 1/4 deaths | CuTy: 80% inhibition | 
11 | c1ccc(CN(CCN(Cc2ccccn2)Cc2ccccn2)Cc2ccccn2)nc1 [TPEN, reference compound] |  |  |  |  |  |  |  |  |  |  |  |  |  |  |  | inhibited ZP1 labeling
